Results: patent US20230286948A1 (HUYABIO International, LLC, priority 2022, published 2023)

Each molecule was assayed against MLL1-WDR5 protein-protein interaction (Homo sapiens (Human), UniProt P61964) (assay: WDR5 TR-FRET assay (MLL1-WDR5 PPI inhibition)). Details: 5 nM WDR5 protein, 10 nM peptide, read-out: IC50 (nM), MLL1-WDR5 PPI inhibitory activity.
Assay type: binding
Description: WDR5 TR-FRET Assay Procedure: Stock compounds were transferred to the assay plate by Echo Liquid Handler. […] Stock compounds were incubated with WDR5 protein for 30 min at room temperature. Plates were covered, protected from light and incubated for 60 min at room temperature, after adding the peptide and Tb-Ab. EnVision Multimode Plate Reader (PerkinElmer) was used for the TR-FRET assay with excitation wavelength at 340 nm and emission wavelength at 495 and 520 nm. The ratio of the 520/495 wavelengths were used to assess the degree of the FRET signal. IC50 was calculated by fitting the inhibition data using XLfit software to sigmoidal dose-response model.

Structure (SMILES)	IC50 [nM]
C[C@@H]1CN(c2ccc(-n3cc(C(=O)NCCCN4CCOCC4)nn3)cc2NC(=O)c2c[nH]c(=O)cc2C(F)(F)F)C[C@H](C)N1C [Example 2, N-(5-(4-((3-morpholinopropyl)carbamoyl)-1H-1,2,3-triazol-1-yl)-2-((3S,5R)-3,4,5-trimethylpiperazin-1-yl)phenyl)-6-oxo-4-(trifluoromethyl)-1,6-dihydropyridine-3-carboxamide]	16.7
CN1CCN(c2ccc(-n3cc(C(=O)NCCCN4CCOCC4)nn3)cc2NC(=O)c2cnc(Cl)cc2C(F)(F)F)CC1 [Example 3, 6-chloro-N-(2-(4-methylpiperazin-1-yl)-5-(4-((3-morpholinopropyl)carbamoyl)-1H-1,2,3-triazol-1-yl)phenyl)-4-(trifluoromethyl)nicotinamide]	> 10000
CN1CCN(c2ccc(-n3cc(C(=O)NCCCN4CCOCC4)nn3)cc2NC(=O)c2c[nH]c(=O)cc2C(F)(F)F)CC1 [Example 4]	51.3
C[C@@H]1CN(c2cc(F)c(-n3cc(C(=O)NCCCN4CCOCC4)nn3)cc2NC(=O)c2cnc(Cl)cc2C(F)(F)F)C[C@H](C)N1C [Example 5, 6-chloro-N-(4-fluoro-5-(4-((3-morpholinopropyl)carbamoyl)-1H-1,2,3-triazol-1-yl)-2-((3S,5R)-3,4,5-trimethylpiperazin-1-yl)phenyl)-4-(trifluoromethyl)nicotinamide]	7270
C[C@@H]1CN(c2cc(F)c(-n3cc(C(=O)NCCCN4CCOCC4)nn3)cc2NC(=O)c2c[nH]c(=O)cc2C(F)(F)F)C[C@H](C)N1C [Example 6, N-(4-fluoro-5-(4-((3-morpholinopropyl)carbamoyl)-1H-1,2,3-triazol-1-yl)-2-((3S,5R)-3,4,5-trimethylpiperazin-1-yl)phenyl)-6-oxo-4-(trifluoromethyl)-1,6-dihydropyridine-3-carboxamide]	7.23
CN1CCN(c2cc(F)c(-n3cc(C(=O)NCCCN4CCOCC4)nn3)cc2NC(=O)c2cnc(Cl)cc2C(F)(F)F)CC1 [Example 7, 6-chloro-N-(4-fluoro-2-(4-methylpiperazin-1-yl)-5-(4-((3-morpholinopropyl)carbamoyl)-1H-1,2,3-triazol-1-yl)phenyl)-4-(trifluoromethyl)nicotinamide]	> 10000
CN1CCN(c2cc(F)c(-n3cc(C(=O)NCCCN4CCOCC4)nn3)cc2NC(=O)c2c[nH]c(=O)cc2C(F)(F)F)CC1 [Example 8, N-(4-fluoro-2-(4-methylpiperazin-1-yl)-5-(4-((3-morpholinopropyl)carbamoyl)-1H-1,2,3-triazol-1-yl)phenyl)-6-oxo-4-(trifluoromethyl)-1,6-dihydropyridine-3-carboxamide]	21.2
C[C@H]1CN(c2ccc(-n3cc(C(=O)NCCCN4CCOCC4)nn3)cc2NC(=O)c2cnc(Cl)cc2C(F)(F)F)CCN1C [Example 9, (S)-6-chloro-N-(2-(3,4-dimethylpiperazin-1-yl)-5-(4-((3-morpholinopropyl)carbamoyl)-1H-1,2,3-triazol-1-yl)phenyl)-4-(trifluoromethyl)nicotinamide]	> 10000
C[C@H]1CN(c2ccc(-n3cc(C(=O)NCCCN4CCOCC4)nn3)cc2NC(=O)c2c[nH]c(=O)cc2C(F)(F)F)CCN1C [Example 10, (S)-N-(2-(3,4-dimethylpiperazin-1-yl)-5-(4-((3-morpholinopropyl)carbamoyl)-1H-1,2,3-triazol-1-yl)phenyl)-6-oxo-4-(trifluoromethyl)-1,6-dihydropyridine-3-carboxamide]	9.12
CN1CCN(c2ccc(-n3cc(C(=O)NCCCN4CCOCC4)nn3)cc2NC(=O)c2cnc(F)cc2C(F)(F)F)CC1 [Example 11, 6-fluoro-N-(2-(4-methylpiperazin-1-yl)-5-(4-((3-morpholinopropyl)carbamoyl)-1H-1,2,3-triazol-1-yl)phenyl)-4-(trifluoromethyl)nicotinamide]	4230
Cc1cc(C(F)(F)F)c(C(=O)Nc2cc(-n3cc(C(=O)NCCCN4CCOCC4)nn3)ccc2N2CCN(C)CC2)cn1 [Example 12, 6-methyl-N-(2-(4-methylpiperazin-1-yl)-5-(4-((3-morpholinopropyl)carbamoyl)-1H-1,2,3-triazol-1-yl)phenyl)-4-(trifluoromethyl)nicotinamide]	> 10000
CN1CCN(c2ccc(-n3cc(C(=O)NCCCN4CCOCC4)nn3)cc2NC(=O)c2cnc(C#N)cc2C(F)(F)F)CC1 [Example 13, 6-cyano-N-[2-(4-methylpiperazin-1-yl)-5-[4-(3-morpholinopropylcarbamoyl)triazol-1-yl]phenyl]-4-(trifluoromethyl)pyridine-3-carboxamide]	> 10000
CSc1cc(C(F)(F)F)c(C(=O)Nc2cc(-n3cc(C(=O)NCCCN4CCOCC4)nn3)ccc2N2CCN(C)CC2)cn1 [Example 14, N-[2-(4-methylpiperazin-1-yl)-5-[4-(3-morpholinopropylcarbamoyl)triazol-1-yl]phenyl]-6-methylsulfanyl-4-(trifluoromethyl)pyridine-3-carboxamide]	> 10000
CN1CCN(c2ccc(-n3cc(C(=O)NCCCN4CCOCC4)nn3)cc2NC(=O)c2cnc(S(C)(=O)=O)cc2C(F)(F)F)CC1 [Example 15, N-[2-(4-methylpiperazin-1-yl)-5-[4-(3-morpholinopropylcarbamoyl)triazol-1-yl]phenyl]-6-methylsulfonyl-4-(trifluoromethyl)pyridine-3-carboxamide]	> 10000
COc1cc(C(F)(F)F)c(C(=O)Nc2cc(-n3cc(C(=O)NCCCN4CCOCC4)nn3)ccc2N2CCN(C)CC2)cn1 [Example 16, 6-methoxy-N-(2-(4-methylpiperazin-1-yl)-5-(4-((3-morpholinopropyl)carbamoyl)-1H-1,2,3-triazol-1-yl)phenyl)-4-(trifluoromethyl)nicotinamide]	> 10000
CCOc1cc(C(F)(F)F)c(C(=O)Nc2cc(-n3cc(C(=O)NCCCN4CCOCC4)nn3)ccc2N2CCN(C)CC2)cn1 [Example 17, 6-ethoxy-N-(2-(4-methylpiperazin-1-yl)-5-(4-((3-morpholinopropyl)carbamoyl)-1H-1,2,3-triazol-1-yl)phenyl)-4-(trifluoromethyl)nicotinamide]	> 10000
CN1CCN(c2ccc(-n3cc(C(=O)NCCCN4CCOCC4)nn3)cc2NC(=O)c2cnc(N)cc2C(F)(F)F)CC1 [Example 18, 6-amino-N-(2-(4-methylpiperazin-1-yl)-5-(4-((3-morpholinopropyl)carbamoyl)-1H-1,2,3-triazol-1-yl)phenyl)-4-(trifluoromethyl)nicotinamide]	> 10000
CN1CCN(c2ccc(-n3cc(C(=O)NCCCN4CCOCC4)nn3)cc2NC(=O)c2cnc(Cl)cc2Cl)CC1 [Example 19, 4,6-dichloro-N-[2-(4-methylpiperazin-1-yl)-5-[4-(3-morpholinopropylcarbamoyl)triazol-1-yl]phenyl]pyridine-3-carboxamide]	> 10000
CN1CCN(c2ccc(-n3cc(C(=O)NCCCN4CCOCC4)nn3)cc2NC(=O)c2cnc(C(F)(F)F)cc2Cl)CC1 [Example 20, 4-chloro-N-(2-(4-methylpiperazin-1-yl)-5-(4-((3-morpholinopropyl)carbamoyl)-1H-1,2,3-triazol-1-yl)phenyl)-6-(trifluoromethyl)nicotinamide]	> 10000
Cc1c(Cl)ncc(C(=O)Nc2cc(-n3cc(C(=O)NCCCN4CCOCC4)nn3)ccc2N2CCN(C)CC2)c1Cl [Example 21, 4,6-dichloro-5-methyl-N-(2-(4-methylpiperazin-1-yl)-5-(4-((3-morpholinopropyl)carbamoyl)-1H-1,2,3-triazol-1-yl)phenyl)nicotinamide]	6570
